From PMC10571041, “Activity of Single Insect Olfactory Receptors Triggered by Airborne Compounds Recorded in Self-Assembled Tethered Lipid Bilayer Nanoarchitectures” (ACS Applied Materials & Interfaces, 2023)

Biological target: T1, EcorOBP15-m1 (odorant binding protein) (Eupeodes corollae, UniProt A0A8F9RZG6, F82L)
T1 construct: recombinant protein expressed in E. coli
T1 sequence (A0A8F9RZG6 22-145 F82L): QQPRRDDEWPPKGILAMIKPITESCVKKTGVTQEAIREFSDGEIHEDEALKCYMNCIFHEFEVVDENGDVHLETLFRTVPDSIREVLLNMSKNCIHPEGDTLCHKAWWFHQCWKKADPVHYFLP
Assay: competitive fluorescence displacement of 1-NPN

Compound CCCCCC(=O)OCC [ethyl hexanoate] has a Kd of 7.4 µM.
